System: 32R-3n (DNA, G4) GCGGTGTGGGAAGAGGGAAGAGGGGGAGGCAG
Test: UV melting, 260 nm
Details: 0.1 M Li+; 0.02 M Tris-HCl pH 7.0; 4 μM DNA, 40 μM ThT; psDNA

Cc1ccc2c(c1)sc(-c1ccc(N(C)C)cc1)[n+]2C
ΔTm: ~ 19.8 °C
